Assay results from ChEMBL document CHEMBL1201862, “PubChem BioAssay data set” (2004).
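These data come from cells grown in 96-well plates and exposed to compound for 48 hours at five concentrations. GI50 marks 50% less growth.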 Calls of active or inactive are those of the source. Cut-off read from the data, not from the text of the source: active = GI50 up to about 1.1 µM and inactive = higher.

Tests used:
Experiment in all cases: DTP human tumour cell line panel, 48 h
OVCAR-8 = test system: OVCAR-8
SNB-19 = test system: SNB-19
A549 = test system: A549
MCF7 = test system: MCF7
SK-MEL-28 = test system: SK-MEL-28
OVCAR-3 = test system: OVCAR-3
MDA-MB-435 = test system: MDA-MB-435
SF-295 = test system: SF-295
BT-549 = test system: BT-549
SNB-75 = test system: SNB-75
NCI-H460 = test system: NCI-H460
COLO 205 = test system: COLO 205
HCT-15 = test system: HCT-15
HL-60 = test system: HL-60
CCRF-CEM = test system: CCRF-CEM
786-0 = test system: 786-0
EKVX = test system: EKVX
HCC 2998 = test system: HCC 2998
A498 = test system: A498
TK-10 = test system: TK-10

| SMILES | GI50 (OVCAR-8) | GI50 (SNB-19) | GI50 (A549) | GI50 (MCF7) | GI50 (SK-MEL-28) | GI50 (OVCAR-3) | GI50 (MDA-MB-435) | GI50 (SF-295) | GI50 (BT-549) | GI50 (SNB-75) | GI50 (NCI-H460) | GI50 (COLO 205) | GI50 (HCT-15) [µM] | GI50 (HL-60) | GI50 (CCRF-CEM) | GI50 (786-0) | GI50 (EKVX) | GI50 (HCC 2998) | GI50 (A498) | GI50 (TK-10) |
| --- | --- | --- | --- | --- | --- | --- | --- | --- | --- | --- | --- | --- | --- | --- | --- | --- | --- | --- | --- | --- |
| SCCSCCCSCCS | > 100 µM (inactive) | 71.9 µM (inactive) | > 100 µM (inactive) | 70.8 µM (inactive) | > 100 µM (inactive) | 76.4 µM (inactive) | > 100 µM (inactive) | 76.9 µM (inactive) | 53.3 µM (inactive) | 59.3 µM (inactive) | 31.1 µM (inactive) | 86.9 µM (inactive) | > 100 | 9.31 µM (inactive) | 10.5 µM (inactive) | > 100 µM (inactive) | > 100 µM (inactive) | > 100 µM (inactive) |  |  |
| COc1cc(C2S/C(=C/c3ccccc3)C(=O)N2c2cccc([N+](=O)[O-])c2)cc(OC)c1OC (stereo unspecified) | > 100 µM (inactive) | > 100 µM (inactive) | > 100 µM (inactive) | 47.8 µM (inactive) | > 100 µM (inactive) |  | 17.5 µM (inactive) | 50.1 µM (inactive) | > 100 µM (inactive) |  |  | > 100 µM (inactive) | 71.9 |  |  | 51.4 µM (inactive) | 50 µM (inactive) | > 100 µM (inactive) | > 100 µM (inactive) | > 100 µM (inactive) |
| COc1cc(NP(=O)(Oc2ccccc2)Oc2ccccc2)ccc1Nc1c2ccccc2nc2c1[nH]c1ccccc12 | 1.23 µM (inactive) | 0.755 µM (active) | 0.16 µM (active) | 0.092 µM (active) | 16.2 µM (inactive) | 2.08 µM (inactive) | 3.11 µM (inactive) | 0.344 µM (active) | 5.51 µM (inactive) | 0.766 µM (active) | 0.0226 µM (active) | 2.81 µM (inactive) | 1.63 |  | 0.183 µM (active) | 0.278 µM (active) | 9.71 µM (inactive) | 4.36 µM (inactive) | 0.269 µM (active) | 3.01 µM (inactive) |
| COC(=O)C(Cc1ccc(OC)cc1O)NC(=O)OC(C)(C)C (stereo unspecified) | > 100 µM (inactive) | > 100 µM (inactive) | > 100 µM (inactive) | > 100 µM (inactive) | > 100 µM (inactive) | > 100 µM (inactive) | > 100 µM (inactive) | > 100 µM (inactive) | > 100 µM (inactive) | > 100 µM (inactive) | > 100 µM (inactive) | > 100 µM (inactive) | > 100 | > 100 µM (inactive) | > 100 µM (inactive) | > 100 µM (inactive) | > 100 µM (inactive) | > 100 µM (inactive) |  | > 100 µM (inactive) |
